Data from article PMC2690590, “Functional recombinant MHC class II molecules and high-throughput peptide-binding assays” (Immunome Research, 2009).
Where no end group is shown, it is not given here.

What was measured:
[1] = target: DP401 (DPA1*0103/DPB1*0401) (Homo sapiens, UniProt P04440+P20036); experiment: Direct LOCI peptide-MHC-II binding assay, DP401
DR3 (DRA*0101/DRB1*0301) = target: T1, DR3 (DRA*0101/DRB1*0301) (Homo sapiens, UniProt P01903+P01911, A100K/A102G/A103R/A169T/F55Y/I96L/K41T/L162R/M171V/P40S/Q125H/Q178H/Q39Y/R42S/S66N/T106N/T262R/W38E/Y61H); experiment: Direct LOCI peptide-MHC-II binding assay, DR3
T1 construct: DRA*01011-181LZFos; DRB1*03011-190LZJunBSP; made in house

DR4 (DRA*0101/DRB1*0401) = target: T2, DR4 (DRA*0101/DRB1*0401) (Homo sapiens, UniProt P01903+P01911, A100K/A169T/F76Y/I96L/K127E/L162R/M171V/N62H/P40V/Q125Y/R42H/S133A/S149N/S66Y/V115G/V209L/W38E); experiment: Direct LOCI peptide-MHC-II binding assay, DR4
T2 construct: DRA*01011-181LZFos; DRB1*04011-190LZJunBSP; made in house

[2] = target: T3, DRB1*0813 (DRA*0101/DRB1*0813) (Homo sapiens, UniProt P01903+P01911, A100R/A103L/A169T/F76Y/H45Y/I96L/K41T/L162R/M171V/P40S/Q125H/Q178H/Q39Y/Q99D/R218S/R42G/S66Y/V115G/W38E); experiment: Direct LOCI peptide-MHC-II binding assay, DRB1*0813
T3 construct: DRA*01011-181LZFos; DRB1*08131-190LZJunBSP; made in house

[3] = target: T4, DRB3*0301 (DRA*0101/DRB3*0301) (Homo sapiens, UniProt P01903+P79483, A169T/A212P/D57E/G115V/L67V/Q178H/R103Q/R40L/Y55F); experiment: Direct LOCI peptide-MHC-II binding assay, DRB3*0301
T4 construct: DRA*01011-181LZFos; DRB3*03011-190LZJunBSP; made in house

Sequence of DP401 (DPA1*0103/DPB1*0401) (P20036 with tags, fused parts or gaps C154S): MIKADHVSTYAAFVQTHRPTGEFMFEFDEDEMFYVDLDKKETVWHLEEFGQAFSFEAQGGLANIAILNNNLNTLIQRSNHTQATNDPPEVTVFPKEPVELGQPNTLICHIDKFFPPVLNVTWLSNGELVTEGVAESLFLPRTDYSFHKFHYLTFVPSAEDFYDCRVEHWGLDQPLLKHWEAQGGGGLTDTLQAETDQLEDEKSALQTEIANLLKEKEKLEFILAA
Sequence of DP401 (DPA1*0103/DPB1*0401) (as listed by the source): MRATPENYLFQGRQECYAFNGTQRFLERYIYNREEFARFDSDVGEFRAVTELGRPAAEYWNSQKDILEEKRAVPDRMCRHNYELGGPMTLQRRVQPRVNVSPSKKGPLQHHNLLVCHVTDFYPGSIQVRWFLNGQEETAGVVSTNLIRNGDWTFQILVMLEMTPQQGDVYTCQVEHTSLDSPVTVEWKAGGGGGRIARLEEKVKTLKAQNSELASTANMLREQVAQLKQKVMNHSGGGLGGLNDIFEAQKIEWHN

## CSCC[C@H](NC(=O)[C@@H](N)Cc1ccccc1)C(=O)N[C@@H](CO)C(=O)N[C@@H](CCCNC(=N)N)C(=O)N[C@@H](CCCCN)C(=O)N[C@@H](CC(C)C)C(=O)N[C@@H](Cc1c[nH]cn1)C(=O)N[C@@H](CCCNC(=N)N)C(=O)N[C@@H](Cc1ccc(O)cc1)C(=O)O [Hantaan]
[1]
  Kd: > 5 µM
DR3 (DRA*0101/DRB1*0301)
  Kd: 0.279 µM
DR4 (DRA*0101/DRB1*0401)
  Kd: > 5 µM
[2]
  Kd: 0.021 µM

## WMARRHAER [Brucella]
[1]
  Kd: > 5 µM
DR3 (DRA*0101/DRB1*0301)
  Kd: > 5 µM
DR4 (DRA*0101/DRB1*0401)
  Kd: > 5 µM
[3]
  Kd: > 5 µM
